Conditions: Transpiration method

Cn1c(=O)c2c(ncn2C)n(C)c1=O [caffeine]
Conditions | vapor or sublimation pressure [kPa]
366.2 K, Crystal 2 | 0.00017
373.3 K, Crystal 2 | 0.00033
379.9 K, Crystal 2 | 0.00055
383.9 K, Crystal 2 | 0.00077
386.9 K, Crystal 2 | 0.00106
389.8 K, Crystal 2 | 0.00128
395.9 K, Crystal 2 | 0.00223
400.9 K, Crystal 2 | 0.00338
405 K, Crystal 2 | 0.00441
406 K, Crystal 2 | 0.00525
408 K, Crystal 2 | 0.00577
410.1 K, Crystal 2 | 0.00693
420.2 K, Crystal 1 | 0.01448
424.9 K, Crystal 1 | 0.02064
430.1 K, Crystal 1 | 0.02868
434.5 K, Crystal 1 | 0.03685

Source: the NIST ThermoML archive (doi:10.1016/j.jct.2008.07.002)
